Columns and labels:
[1] = target: T1, vitamin D-binding protein (Rattus norvegicus, UniProt P04276); assay: Assay of affinity for vitamin D-binding protein (displacement of tritium-labeled 25-hydroxyvitamin D3, serum of vitamin D-deficient rat); conditions: ratio of ED50 with control = 1, for Compounds 1, 2 and 3 30% replacement values were used
T1 construct: from tissue; host or cells: serum of vitamin D-deficient rat, diluted 1:10000, protein not purified
T1 sequence (P04276 17-476): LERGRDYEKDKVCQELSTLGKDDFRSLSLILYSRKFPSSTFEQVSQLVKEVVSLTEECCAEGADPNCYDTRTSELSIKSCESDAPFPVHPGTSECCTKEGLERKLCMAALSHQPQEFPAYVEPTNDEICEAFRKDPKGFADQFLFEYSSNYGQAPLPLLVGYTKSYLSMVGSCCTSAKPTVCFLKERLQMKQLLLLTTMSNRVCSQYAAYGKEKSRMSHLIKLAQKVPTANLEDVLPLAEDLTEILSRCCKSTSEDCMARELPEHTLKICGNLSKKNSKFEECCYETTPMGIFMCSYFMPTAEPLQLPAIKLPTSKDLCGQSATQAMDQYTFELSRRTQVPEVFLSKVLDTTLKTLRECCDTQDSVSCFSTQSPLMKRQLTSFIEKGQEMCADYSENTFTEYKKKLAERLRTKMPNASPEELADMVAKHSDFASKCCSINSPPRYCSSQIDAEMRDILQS
Protocol: Assay of Affinity for Vitamin D-Binding Protein
The serum of vitamin D-deficient rat was diluted 1:10000 with 3.5 mM barbiturate buffer solution (pH 8.6) containing 0.13 M NaCl. […] Then, 500 μl of the diluted solution of vitamin D deficient rat serum was added to each culture tube, which was then subjected to vortex stirring. After incubation at 4° C. for 1 hour, 250 μL of DCC suspension was added and vortex-stirred. Each of the culture tubes was allowed to stand for 15 minutes at 4° C., and centrifuged at 3000 rpm at 4° C. for 10 minutes.

Acute toxicity tests = conditions: in vivo
[2] = system: 1,25-dihydroxyvitamin D3 receptor; conditions: from the literature; cited from earlier work
[3] = system: vitamin D-binding protein; conditions: from the literature; cited from earlier work

| Compound | Affinity for vitamin D-binding protein relative to 1α,25-dihydroxyvitamin D3 [1] | further results |
| --- | --- | --- |
| C=C1/C(=C\C=C2/CCC[C@]3(C)[C@@H]([C@H](C)[C@@H](C)CCC(C)(C)O)CC[C@@H]23)C[C@@H](O)C[C@@H]1O [Compound 4, (20R,22S)-22-methyl-1α,25-dihydroxyvitamin D3] | 2/3 |  |
| C=C1/C(=C\C=C2/CCC[C@]3(C)[C@@H]([C@@H](C)[C@H](C)CCC(C)(C)O)CC[C@@H]23)C[C@@H](O)C[C@@H]1O [Compound 1, (20S,22R)-22-methyl-1α,25-dihydroxyvitamin D3] | 1/500 and lowest affinity | Toxicity in acute toxicity tests (Acute toxicity tests): low toxicity; Affinity for vitamin D-binding protein relative to 1α,25-dihydroxyvitamin D3 ([1]; listed as (20S,22R)-22-methyl-1α,25-dihydroxyvitamin D3): one five-hundredth and low |
| C=C1/C(=C\C=C2/CCC[C@]3(C)[C@@H]([C@H](C)OCCC(C)(C)O)CC[C@@H]23)C[C@@H](O)C[C@@H]1O [22-oxa-1,25-dihydroxyvitamin D3] |  | Affinity for the D3 receptor relative to 1,25-dihydroxyvitamin D3 [2]: one-eighth; Affinity for vitamin D-binding protein relative to 1,25-dihydroxyvitamin D3 [3]: about one six-hundredth |
| C=C1/C(=C\C=C2/CCC[C@]3(C)[C@@H]([C@H](C)[C@H](C)CCC(C)(C)O)CC[C@@H]23)C[C@@H](O)C[C@@H]1O [Compound 3, (20R,22R)-22-methyl-1α,25-dihydroxyvitamin D3] | 1/220 |  |
| C=C1/C(=C\C=C2/CCC[C@]3(C)[C@@H]([C@@H](C)[C@@H](C)CCC(C)(C)O)CC[C@@H]23)C[C@@H](O)C[C@@H]1O [Compound 2, (20S,22S)-22-methyl-1α,25-dihydroxyvitamin D3] | 1/500 |  |

— patent US5756488A, “Composition for improving calcium metabolism” (Kuraray Co., Ltd., priority 1995, dated 1998)
